In patent publication US20130345205A1, “SUBSTITUTED BICYCLIC ARALKYL PYRAZOLE LACTAM ANALOGS AS ALLOSTERIC MODULATORS OF MGLUR5 RECEPTORS” (Vanderbilt University, priority 2012, published 2013):

Tests used:
human mGluR5 = human mGluR5 (Homo sapiens, UniProt P41594); experiment: Cell-based functional Ca2+ mobilization assay (FDSS), potentiation of glutamate EC20 response; settings: H10H cell-line (HEK, recombinant human mGluR5); for Emax: glutamate EC20, maximum average response at a single concentration, percent of maximal glutamate response; for EC50: positive allosteric modulation in presence of glutamate EC20, concentration in mol/L
Chain of human mGluR5 (P41594 21-1180 isoform P41594-2 limits assumed): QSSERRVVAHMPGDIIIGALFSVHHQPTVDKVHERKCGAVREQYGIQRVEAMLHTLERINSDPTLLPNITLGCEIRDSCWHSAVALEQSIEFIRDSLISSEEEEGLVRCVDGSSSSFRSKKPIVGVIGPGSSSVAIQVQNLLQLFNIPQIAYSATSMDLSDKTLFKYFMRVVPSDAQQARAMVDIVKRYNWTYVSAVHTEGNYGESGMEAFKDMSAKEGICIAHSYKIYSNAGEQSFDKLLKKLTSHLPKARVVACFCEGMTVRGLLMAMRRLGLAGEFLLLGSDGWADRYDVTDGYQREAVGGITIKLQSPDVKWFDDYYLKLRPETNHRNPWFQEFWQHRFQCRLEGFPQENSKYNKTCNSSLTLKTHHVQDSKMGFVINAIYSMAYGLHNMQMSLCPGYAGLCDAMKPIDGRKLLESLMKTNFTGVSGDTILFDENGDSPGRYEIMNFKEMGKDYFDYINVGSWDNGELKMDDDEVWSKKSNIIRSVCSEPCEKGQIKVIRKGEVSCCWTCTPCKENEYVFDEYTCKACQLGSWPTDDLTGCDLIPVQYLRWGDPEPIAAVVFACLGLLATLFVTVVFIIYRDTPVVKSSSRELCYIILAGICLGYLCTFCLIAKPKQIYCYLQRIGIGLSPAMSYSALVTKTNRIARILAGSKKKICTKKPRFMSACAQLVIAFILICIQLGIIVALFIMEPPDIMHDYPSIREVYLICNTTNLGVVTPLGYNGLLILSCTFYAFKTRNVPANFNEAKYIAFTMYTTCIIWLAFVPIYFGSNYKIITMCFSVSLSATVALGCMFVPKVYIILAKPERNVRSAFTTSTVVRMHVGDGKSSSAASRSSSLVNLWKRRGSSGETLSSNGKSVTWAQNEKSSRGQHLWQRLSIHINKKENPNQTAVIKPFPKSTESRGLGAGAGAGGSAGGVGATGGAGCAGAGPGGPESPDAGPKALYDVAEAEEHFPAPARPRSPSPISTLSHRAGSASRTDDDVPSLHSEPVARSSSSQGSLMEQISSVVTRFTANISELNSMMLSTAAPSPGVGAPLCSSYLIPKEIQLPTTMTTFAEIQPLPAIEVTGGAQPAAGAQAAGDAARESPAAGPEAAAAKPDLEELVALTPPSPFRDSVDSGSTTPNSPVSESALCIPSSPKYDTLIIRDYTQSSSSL
From the text: Human mGluR5a cDNA in pCMV6-XL6 mammalian expression plasmid was purchased from OriGene Technologies, Inc. (catalogue number SC326357) and subcloned into pcDNA3.1(−). Human embryonic kidney (HEK) 293A cells were then transfected with human mGluR5a pcDNA3.1(−) using LipofectAmine2000 (Invitrogen) and monoclones were selected and tested for functional response using a Ca^2+ mobilization assay. Monoclones were named for the species (“H” for human) plus the location on the plate (e.g. “10H”).
HEK cells transfected with the human mGluR5a receptor (H10H or H12H cell line) were plated at 15,000 cells/well in clear-bottomed poly-D-lysine-coated assay plates (BD Falcon) in glutamate-glutamine-free growth medium and incubated overnight at 37° C. and 5% CO2. Cell-lines used were either the H10H or H12H cell-lines expressing the human mGluR5 receptor. The following day, the growth medium was removed and the cells were washed with assay buffer containing 1× Hank's balanced salt solution (Invitrogen, Carlsbad, Calif.), 20 mM HEPES, 2.5 mM probenecid, pH 7.4 and left with 20 μL of this reagent. Following this step, the cells were loaded with calcium indicator dye, fluo-4 AM, to a final concentration of 2 μM and incubated for 40-45 min at 37° C. The dye solution was removed and replaced with assay buffer. Cell plates were held for 10-15 min at room temperature and were then loaded into the Functional Drug Screening System 6000 (FDSS 6000, Hamamatsu, Japan).
After establishment of a fluorescence baseline for about 3 seconds, the compounds of the present invention were added to the cells, and the response in cells was measured. 2.3 minutes later an EC20 concentration of the mGluR5 receptor agonist glutamate was added to the cells, and the response of the cells was measured for about 1.7 minutes. All test compounds were dissolved and diluted to a concentration of 10 mM in 100% DMSO and then serially diluted into assay buffer for a 2× stock solution in 0.6% DMSO; stock compounds were then added to the assay for a final DMSO concentration of 0.3% after the first addition to the assay well. Calcium fluorescence measures were recorded as fold over basal fluorescence; raw data was then normalized to the maximal response to glutamate. Potentiation of the agonist response of the mGluR5 receptor in the present invention was observed as an increase in response to submaximal concentrations of glutamate in the presence of compound compared to the response to glutamate in the absence of compound.
The concentration-response curves of compounds of the present invention, obtained in the presence of EC20 of mGluR5 receptor agonist glutamate to determine positive allosteric modulation, were generated using Microsoft Excel with IDBS XLFit add-ins. The raw data file containing all time points was used as the data source in the analysis template. This was saved by the FDSS as a tab-delimited text file. Data were normalized using a static ratio function (F/F0) for each measurement of the total 350 values per well divided by each well's initial value. Data was then reduced as to peak amplitudes (Max-Initial Min) using a time range that starts approximately 1 second after the glutamate EC20 addition and continues for approximately 40 seconds. This is sufficient time to capture the peak amplitude of the cellular Calcium response. Individual amplitudes were expressed as % EMax by multiplying each amplitude by 100 and then dividing the product by the mean of the amplitudes derived from the glutamate ECMax-treated wells. pEC50 values for test compounds were generated by fitting the normalized values versus the log of the test compound concentration (in mol/L) using a 4 parameter logistic equation where none of the parameters were fixed. Each of the three values collected at each concentration of test compound were weighted evenly. Individual values falling outside the 95% prediction limits of the curve fit were automatically excluded from the fit. […]

Compound | melting point | Emax (human mGluR5) | EC50 (human mGluR5)
O=C1c2cc(COc3ccccc3)nn2CCN1Cc1ncccc1F [Example B83] | 117.2 °C | 77% | 417 nM
Cc1nccc(CN2CCn3nc(COc4ccccc4)cc3C2=O)n1 [Example B84] | > 300 °C | 70% | 1740 nM
Cc1cccc(CN2CCn3nc(COc4ccc(F)cc4)cc3C2=O)n1 [Example B85] | 147.4 °C | 69.5% | 447 nM
Cc1cccc(CN2C(=O)c3cc(COc4ccccc4)nn3C[C@H]2C)n1 [Example B86] | 107.6 °C | 71.5% | 302 nM
C[C@@H]1Cn2nc(COc3ccccc3)cc2C(=O)N1Cc1ncccc1Cl [Example B87] | 166.4 °C | 80% | 275 nM
O=C1c2cc(COc3ccc(F)cc3)nn2CCN1Cc1ncccc1Cl [Example B88] | 268.8 °C | 71% | 93.3 nM
Cc1cc(CN2CCn3nc(COc4ccccc4)cc3C2=O)no1 [Example B89] | 187.5 °C | 66% | 955 nM
O=C1c2cc(COc3ccccc3)nn2CCN1Cc1nc2ccccc2s1 [Example B91] | 105.8 °C | 69% | 67.6 nM
O=C1c2cc(COc3ccccc3)nn2CCN1Cc1nc2ccccc2o1 [Example B92] | 145.4 °C | 65% | 282 nM
O=C1c2cc(COc3ccccc3)nn2CCN1Cc1cccc2cccnc12 [Example B93] | 131.3 °C | 73% | 25.7 nM
O=C1c2cc(COc3ccccc3)nn2CCN1Cc1nccc2ccccc12 [Example B94] | 137.6 °C | 76% | 123 nM
O=C1c2cc(COc3ccccc3)nn2CCN1Cc1ccc(C(F)(F)F)nc1 [Example B95] | 115.4 °C | 75% | 372 nM
Cc1ncccc1CN1CCn2nc(COc3ccccc3)cc2C1=O [Example B96] | 137.5 °C | 67% | 1000 nM
Cc1nc(CN2CCn3nc(COc4ccccc4)cc3C2=O)cs1 [Example B97] | 121.9 °C | 65% | 417 nM
Cn1c(CN2CCn3nc(COc4ccccc4)cc3C2=O)nc2ccccc21 [Example B98] | > 300 °C | 72% | > 10000 nM
COc1ccc(CN2CCn3nc(COc4ccccn4)cc3C2=O)cc1 [Example B101] | 95 °C | 68% | 1290 nM
COc1nccnc1CN1CCn2nc(COc3cccc(F)c3)cc2C1=O [Example B103] | 154.1 °C | 63% | 324 nM
O=C1c2cc(COc3cccc(F)c3)nn2CCN1Cc1ncccc1F [Example B104] | > 300 °C | 65% | 550 nM
